In US10519133B2, “Vinyl compounds as FGFR and VEGFR inhibitors” (MEDSHINE DISCOVERY INC., priority 2015, dated 2019):
Where two headings read alike, the source gives them in different places.

What was measured:
[1] = molecular target: T1, FGFR1 (Homo sapiens, UniProt P11362); assay: Z′-LYTE Detection Kinase Assay, in vitro enzymatic activity; type: biochemical; conditions: 0.6 nM FGFR1, 2 uM Tyr4 peptide, 10 uM ATP, 60 min 23° C.
T1 construct: purchased Invitrogen PV4105
Procedure: To measure enzyme activity by Z′-LYTE™ Detection Kinase Assay, and to evaluate the inhibitory effect of the compounds on FGFR1 using IC50 value of the compounds as an indicator. […]
Reaction Buffer: 50 mM Hepes (pH 7.5), 10 mM MgCl2, 1 mM EGTA, 0.01% Brij-35, 1 mM DTT, 2 mM MnCl2 0.6 nM FGFR1, 2 uM Tyr4 peptide and 10 uM ATP in reaction buffer (50 mM Hepes, pH 7.5, 10 mM MgCl2, 0.01% BRIJ-35, 1 mM EGTA, 4 mM MnCl2, 2 mM DTT). a. Diluting the compounds with DMSO to 10 mM, 3-fold dilution, 11 gradients, duplicate wells. b. Diluting the compound by 1:25 into middle plate at Bravo Automatic Liquid Station, then transferring 2.5 ul to the reaction plate to ensure the final DMSO concentration to be 1%. c. Transferring 5 ul of enzyme/substrate buffer into each well d. Using Multidrop Liquid Workstation to sequentially add ATP solution to each well e. Centrifuging at 1000 rpm for 1 minute f. Placing the reaction plate in an incubator at 23° C. to react for 60 min. a. Preparing a 1:128 mixture of Development Regent B and Development Buffer b. Adding 5 ul to each well and centrifuging at 1000 rpm for 1 minute c. Placing the reaction plate in a thermostat (23° C.) after centrifuging for 90 minutes, removing and reading on Envision (Perkin Elmer) Plate Reader
D. Analyzing Data: Analyzing Data Using XLFIT (IDBS) and Calculating IC50 Values for the Compounds.

[2] = system: SNU-16 cell; assay: CellTiter-Glo Luminescent Cell Viability Assay; type: cell-based; conditions: Homo sapiens, 72 h; SNU-16 cells, 3 days; read-out: SNU-16 IC50 (CellTiter-Glo Detection)
Procedure: To detect the change of intracellular ATP by CellTiter-Glo® Luminescent Cell Viability Assay, and to evaluate the inhibitory effect of the compounds on in vitro cell SNU-16 using IC50 value of the compounds as an indicator.
Cell line: SNU-16 cell strain d. Diluting SNU-16 with medium, adding the diluted cells to the 384 plate (Greiner. 781090) (50 μL/well, SNU-16 cell 750 cells/well) with multi-channel pipette. Placing the cell plate in a 37° C., 5% CO2 incubator overnight. […]
g. Diluting the compound with DMSO to 10 mM, 3-fold dilution, 11 gradients, duplicate wells. h. Transferring 2.4 ul of the compound to the middle plate added with 47.6 ul of cell culture media at Bravo Automatic Liquid Station. Then transferring 5 ul to the cell culture plate (55 ul) to ensure the final DMSO concentration to be 0.4%. […]
i. Placing the cell culture plate in 5% CO2 incubator at 37° C. to continue cultivating for 3 days. d. Balancing Cell Titer Glo Reagent to room temperature e. Taking 30 ul of Cell Titer Glo Reagent in a 1:2 ratio into each well and gently mixing for 2 minutes f. Placing the cell culture plate in an incubator (23° C.) for 10 minutes, taking out and centrifuging at 1000 rpm for 1 minute g. Reading on Envision (Perkin Elmer) Plate Reader.
H. Analyzing Data: Analyzing the Data Using XLFIT (IDBS) and Calculating IC50 Values for the Compounds.

[3] = Pharmacokinetics after intravenous and intragastric administration (Experimental Example 4); type: in vivo; conditions: female Balb/c nude mice; for bioavailability / AUC(0-t) / Cmax / half-life / clearance / Vd: mouse, plasma; for Cmax: read-out: peak concentration (Cmax); for half-life: read-out: elimination half-life (T1/2) (converted); for clearance: read-out: plasma clearance (CL); for Vd: read-out: steady state apparent volume of distribution (Vdss)
Procedure: Experimental Procedure: A clear solution of the test compound in 20% DMSO/60% PEG400/20% water at 1 mg/ml was injected via the caudal vein into female Balb/c nude mice (fasted overnight, 7-9 weeks of age) with a dose of 1 mg/kg. The test compound suspended in 0.5% Methocel/0.2% Tween 80 at 1 mg/ml was administered by intragastric administration to female Balb/c nude mice (fasted overnight, 7-9 weeks of age) with a dose of 10 mg/kg. About 30 μL of blood collected from the jugular vein or caudal vein at 0.0833, 0.25, 0.5, 1.0, 2.0, 4.0, 8.0 and 24 h after administration in both groups of animals, were placed in anticoagulation tube with EDTA-K2 and the plasma was centrifuged. Plasma concentrations were determined by LC-MS/MS and related pharmacokinetic parameters were calculated using the non-compartmental model linear logarithmic trapezoidal method using WinNonlin™ Version 6.3 (Pharsight, Mountain View, Calif.) pharmacokinetic software.

[4] = po, single intragastric administration 10 mg/kg
[5] = po, single intragastric administration 10 mg/kg, read-out: AUC0-last
[6] = single intravenous injection 1.0 mg/kg, read-out: area under the plasma concentration curve (AUC0-last)
[7] = single intravenous injection 1.0 mg/kg
[8] = single intragastric administration 10 mg/kg

T1 sequence (P11362 22-822): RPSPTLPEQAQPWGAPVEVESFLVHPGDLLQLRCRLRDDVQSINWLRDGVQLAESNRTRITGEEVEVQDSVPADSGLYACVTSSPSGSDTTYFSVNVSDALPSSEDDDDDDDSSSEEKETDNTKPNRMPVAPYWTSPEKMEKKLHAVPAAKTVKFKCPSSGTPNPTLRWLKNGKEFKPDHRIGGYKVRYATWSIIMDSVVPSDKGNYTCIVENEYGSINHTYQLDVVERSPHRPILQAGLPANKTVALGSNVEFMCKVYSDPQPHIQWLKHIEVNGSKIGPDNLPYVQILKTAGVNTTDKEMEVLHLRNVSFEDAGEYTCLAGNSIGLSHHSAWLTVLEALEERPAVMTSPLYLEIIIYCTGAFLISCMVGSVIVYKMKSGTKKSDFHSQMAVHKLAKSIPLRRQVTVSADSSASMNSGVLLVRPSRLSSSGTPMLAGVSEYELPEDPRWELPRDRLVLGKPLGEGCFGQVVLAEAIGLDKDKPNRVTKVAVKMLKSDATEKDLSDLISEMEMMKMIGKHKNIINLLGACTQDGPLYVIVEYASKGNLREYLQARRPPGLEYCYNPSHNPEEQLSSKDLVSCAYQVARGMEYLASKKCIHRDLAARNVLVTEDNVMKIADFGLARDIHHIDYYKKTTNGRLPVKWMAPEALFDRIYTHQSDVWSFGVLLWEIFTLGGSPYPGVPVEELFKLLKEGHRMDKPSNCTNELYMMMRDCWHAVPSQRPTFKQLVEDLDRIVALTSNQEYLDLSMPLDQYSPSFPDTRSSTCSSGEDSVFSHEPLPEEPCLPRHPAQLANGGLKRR

Row | Compound | IC50 [1] [nM] | IC50 [2] [nM] | other results
1 | CC(Oc1ccc2[nH]nc(/C(F)=C/c3ccc(CN4CCOCC4)nc3)c2c1)c1c(Cl)cncc1Cl (racemic) [Example 1] | 50 to 1000 | 10 to 1000 | –
2 | C[C@H](Oc1ccc2[nH]nc(/C=C(\F)c3ccc(CNC4CCOCC4)nc3)c2c1)c1c(Cl)cncc1Cl [Example 17] | 50 to 1000 | ≤ 10 | –
3 | C[C@@H](Oc1ccc2[nH]nc(/C=C(\F)c3ccc(CN4CCC(CO)CC4)nc3)c2c1)c1c(Cl)cncc1Cl [Example 21] | ≤ 10 | ≤ 10 | –
4 | C[C@@H](Oc1ccc2[nH]nc(/C=C(\F)c3ccc(CN4CCN(CC(=O)O)CC4)nc3)c2c1)c1c(Cl)cncc1Cl [Example 29] | ≤ 10 | 10 to 1000 | –
5 | C[C@@H](Oc1ccc2[nH]nc(/C=C(\F)c3ccc(CN4CCNCC4)nc3)c2c1)c1c(Cl)cncc1Cl [Example 32] | ≤ 10 | ≤ 10 | –
6 | C[C@@H](Oc1ccc2[nH]nc(/C=C(\F)c3ccc(CN4CCN(C)CC4)nc3)c2c1)c1c(Cl)cncc1Cl [Example 33] | ≤ 10 | ≤ 10 | –
7 | COC1CCN(Cc2ccc(/C(F)=C/c3n[nH]c4ccc(O[C@H](C)c5c(Cl)cncc5Cl)cc34)cn2)C1 (stereo partly drawn) [Example 34] | ≤ 10 | ≤ 10 | –
8 | C[C@@H](Oc1ccc2[nH]nc(/C=C(\F)c3ccc(OCC4CCOCC4)nc3)c2c1)c1c(Cl)cncc1Cl [Example 41] | 50 to 1000 | ≤ 10 | –
9 | C[C@@H](Oc1ccc2[nH]nc(/C=C(\F)c3ccc(NC4CCOCC4)nc3)c2c1)c1c(Cl)cncc1Cl [Example 45] | 50 to 1000 | ≤ 10 | –
10 | C[C@@H](Oc1ccc2[nH]nc(/C=C(\F)c3ccc(NC4CCNCC4)nc3)c2c1)c1c(Cl)cncc1Cl [Example 47] | ≤ 10 | ≤ 10 | –
11 | CC(Oc1ccc2[nH]nc(/C=C/c3cnc(CN4CCOCC4)cn3)c2c1)c1c(Cl)cncc1Cl (stereo not drawn) [Example 53] | 10 to 50 | ≤ 10 | –
12 | CC(Oc1ccc2[nH]nc(/C=C/c3cc(F)c(CN4CCOCC4)cc3C#N)c2c1)c1c(Cl)cncc1Cl (stereo not drawn) [Example 62] | 50 to 1000 | ≤ 10 | –
13 | CC(Oc1ccc2[nH]nc(-c3ccc(NC(=O)CN4CCOCC4)nc3)c2c1)c1c(Cl)cncc1Cl (stereo not drawn) [Example 70] | 50 to 1000 | ≤ 10 | –
14 | CC(Oc1ccc2[nH]nc(/C=C/c3ccc(CNC4CCN(C)CC4)cc3)c2c1)c1c(Cl)cncc1Cl (stereo not drawn) [Example 76] | ≤ 10 | ≤ 10 | –
15 | CC1CN(C(=O)c2ccc(-c3n[nH]c4ccc(OC(C)c5c(Cl)cncc5Cl)cc34)cc2)CCN1 (stereo not drawn) [Example 112] | 50 to 1000 | – | –
16 | CC(Oc1ccc2[nH]nc(-c3ccc(C(=O)N4CCOCC4)cc3)c2c1)c1c(Cl)cncc1Cl (stereo not drawn) [Example 113] | 50 to 1000 | – | –
17 | CC(Oc1ccc2[nH]nc(-c3ccc(C(=O)N4CCC(O)CC4)cc3)c2c1)c1c(Cl)cncc1Cl (stereo not drawn) [Example 114] | 50 to 1000 | – | –
18 | CC(Oc1ccc2[nH]nc(-c3ccc(C(=O)N4CCC(N(C)C)CC4)cc3)c2c1)c1c(Cl)cncc1Cl (stereo not drawn) [Example 115] | 10 to 50 | – | –
19 | CC(Oc1ccc2[nH]nc(-c3ccc(C(=O)N4CCN(C)CC4)cc3)c2c1)c1c(Cl)cncc1Cl (stereo not drawn) [Example 116] | 50 to 1000 | – | –
20 | CC(Oc1ccc2[nH]nc(-c3ccc(C(=O)N4CCN(C(C)C)CC4)cc3)c2c1)c1c(Cl)cncc1Cl (stereo not drawn) [Example 117] | 50 to 1000 | – | –
21 | CC(Oc1ccc2[nH]nc(-c3ccc(C(=O)N4CCC(O)C4)cc3)c2c1)c1c(Cl)cncc1Cl (stereo not drawn) [Example 119] | 50 to 1000 | – | –
22 | CC(=O)N(C)C1CCN(C(=O)c2ccc(-c3n[nH]c4ccc(OC(C)c5c(Cl)cncc5Cl)cc34)cc2)C1 (stereo not drawn) [Example 120] | 50 to 1000 | – | –

Row | Compound | IC50 [1] [nM] | IC50 [2] [nM] | other results
23 | CC(Oc1ccc2[nH]nc(-c3ccc(C(=O)N4CC[C@@H](N(C)C)C4)cc3)c2c1)c1c(Cl)cncc1Cl (stereo partly drawn) [Example 121] | 50 to 1000 | – | –
24 | CC(Oc1ccc2[nH]nc(-c3ccc(C(=O)NCCN4CCOCC4)cc3)c2c1)c1c(Cl)cncc1Cl (stereo not drawn) [Example 125] | 50 to 1000 | – | –
25 | CC(Oc1ccc2[nH]nc(-c3ccc(C(=O)N4CCNCC4C)cc3)c2c1)c1c(Cl)cncc1Cl (stereo not drawn) [Example 126] | 50 to 1000 | – | –
26 | C[C@@H](Oc1ccc2[nH]nc(-c3cccc(C(=O)NC4CCOCC4)c3)c2c1)c1c(Cl)cncc1Cl [Example 127] | 50 to 1000 | – | –
27 | C[C@@H](Oc1ccc2[nH]nc(-c3cccc(C(=O)N4CC[C@H](O)C4)c3)c2c1)c1c(Cl)cncc1Cl [Example 129] | 50 to 1000 | – | –
28 | C[C@@H](Oc1ccc2[nH]nc(-c3cccc(C(=O)N4CCC(CO)CC4)c3)c2c1)c1c(Cl)cncc1Cl [Example 130] | 50 to 1000 | – | –
29 | C[C@@H](Oc1ccc2[nH]nc(/C=C/c3cccc(CNC4CCOCC4)c3)c2c1)c1c(Cl)cncc1Cl [Example 132] | ≤ 10 | – | –
30 | C[C@@H](Oc1ccc2[nH]nc(/C=C/c3cccc(CN4CCC(O)C4)c3)c2c1)c1c(Cl)cncc1Cl (stereo partly drawn) [Example 134] | ≤ 10 | – | –
31 | C[C@@H](Oc1ccc2[nH]nc(/C=C/c3cccc(CN4CCC(CO)CC4)c3)c2c1)c1c(Cl)cncc1Cl [Example 135] | ≤ 10 | – | –
32 | C[C@@H](Oc1ccc2[nH]nc(/C=C/c3ccc(CN4CCOCC4)nc3)c2c1)c1c(Cl)cncc1Cl [Example 137] | ≤ 10 | – | –
33 | C[C@@H](Oc1ccc2[nH]nc(/C=C/c3ccc(CN4CC[C@H](O)C4)nc3)c2c1)c1c(Cl)cncc1Cl [Example 138] | ≤ 10 | – | –
34 | C[C@@H](Oc1ccc2[nH]nc(/C=C/c3ccc(CN4CCC(CO)CC4)nc3)c2c1)c1c(Cl)cncc1Cl [Example 140] | 10 to 50 | – | –
35 | C[C@@H](Oc1ccc2[nH]nc(/C=C(\F)c3ccc(CNC4CCOCC4)nc3)c2c1)c1ccncc1Cl [Example 142] | 10 to 50 | – | –
36 | CC(Oc1ccc2[nH]nc(/C=C(\F)c3ccc(CNC4CCOCC4)nc3)c2c1)c1ccc(F)cc1Cl (stereo not drawn) [Example 143] | 50 to 1000 | – | –
37 | CC(Oc1ccc2[nH]nc(/C=C(\F)c3ccc(CNC4CCOCC4)nc3)c2c1)c1cc(F)cc(F)c1 (stereo not drawn) [Example 144] | ≤ 10 | – | –
38 | CC(Oc1ccc2[nH]nc(/C=C(\F)c3ccc(CNC4CCOCC4)nc3)c2c1)c1c(F)cccc1Cl (stereo not drawn) [Example 145] | 50 to 1000 | – | –
39 | CC(Oc1ccc2[nH]nc(/C=C(\F)c3ccc(CNC4CCOCC4)nc3)c2c1)c1c(F)cncc1F (stereo not drawn) [Example 146] | ≤ 10 | – | –
40 | CC(Oc1ccc2[nH]nc(/C=C(\F)c3ccc(CNC4CCOCC4)nc3)c2c1)c1c(F)cccc1F (stereo not drawn) [Example 147] | 50 to 1000 | – | –
41 | CCN1CCC(C(C)Oc2ccc3[nH]nc(/C=C/c4ccc(CN5CCOCC5)cc4)c3c2)CC1 (stereo not drawn) [Example 148] | 50 to 1000 | – | –
42 | CC(Oc1ccc2[nH]nc(/C=C/c3ccc(CN4CCOCC4)cc3)c2c1)C1CCN(C)CC1 (stereo not drawn) [Example 149] | 50 to 1000 | – | –
43 | C[C@@H](Oc1ccc2[nH]nc(/C=C/c3ccc(CNC4CCOCC4)nc3)c2c1)c1c(Cl)cncc1Cl [WX_015, reference compound] | – | – | bioavailability [3, 4]: 11.4%; AUC(0-t) [3, 5]: 0.439 ± 0.202 µM·h; Cmax [3, 4]: 134 ± 68.3 nM; AUC(0-t) [3, 6]: 0.386 ± 0.0883 µM·h; half-life [3, 7]: 0.971 ± 0.461 h; clearance [3, 7]: 83.5 ± 18.5 mL/min/kg; Vd [3, 7]: 5.31 ± 0.268 L/kg; peak time [3, 8]: 1.50 ± 0.866 h
44 | C[C@@H](Oc1ccc2[nH]nc(/C=C(\F)c3ccc(CNC4CCOCC4)nc3)c2c1)c1c(Cl)cncc1Cl [WX_018] | – | – | bioavailability [3, 4]: 30.1%; AUC(0-t) [3, 5]: 1.65 ± 0.0401 µM·h; Cmax [3, 4]: 479 ± 62.9 nM; AUC(0-t) [3, 6]: 0.567 ± 0.0194 µM·h; half-life [3, 7]: 1.57 ± 0.0286 h; clearance [3, 7]: 53 ± 1.69 mL/min/kg; Vd [3, 7]: 5.45 ± 0.491 L/kg; peak time [3, 8]: 2.00 h
